Reference: PubChem BioAssay (NCI)
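Dose response: 5 concentrations. Exposure: 48 h. Format: 96-well plates. Endpoint: linear interpolation; highest concentration if not reached. TGI denotes the concentration required for complete inhibition of growth.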

Columns and labels:
Test in all cases: DTP human tumour cell line panel, 48 h
[1] = system: SK-MEL-5 melanoma
[2] = system: SF-295 CNS
[3] = system: OVCAR-4 ovarian
[4] = system: SW-620 colon
[5] = system: HOP-92 NSCLC
[6] = system: MDA-MB-231 breast
[7] = system: COLO 205 colon
[8] = system: HCT-15 colon
[9] = system: OVCAR-5 ovarian
[10] = system: CCRF-CEM leukemia
[11] = system: HCC-2998 colon
[12] = system: KM12 colon
[13] = system: HCT-116 colon
[14] = system: SN12C renal
[15] = system: SNB-19 CNS
[16] = system: U251 CNS
[17] = system: RPMI-8226 leukemia
[18] = system: HL-60(TB) leukemia
[19] = system: MCF7 breast
[20] = system: MOLT-4 leukemia
[21] = system: UACC-257 melanoma
[22] = system: SK-MEL-28 melanoma
[23] = system: MDA-N
[24] = system: EKVX NSCLC
[25] = system: HS 578T breast
[26] = system: A498 renal
[27] = system: NCI-H522 lung
[28] = system: PC-3 prostate
[29] = system: SK-MEL-2 melanoma
[30] = system: MDA-MB-435
[31] = system: HT29 colon
[32] = system: UO-31 renal
[33] = system: SK-OV-3 ovarian
[34] = system: OVCAR-3 ovarian
[35] = system: BT-549 breast
[36] = system: HOP-62 NSCLC
[37] = system: SF-268 CNS
[38] = system: LOX IMVI melanoma
[39] = system: UACC-62 melanoma
[40] = system: MALME-3M melanoma
[41] = system: CAKI-1 renal
[42] = system: NCI-H226 lung
[43] = system: NCI-H23 lung
[44] = system: DU-145 prostate
[45] = system: ACHN renal
[46] = system: TK-10 renal
[47] = system: K-562 leukemia
[48] = system: 786-0 renal
[49] = system: RXF 393 renal
[50] = system: IGROV1 ovarian
[51] = system: NCI-H460 lung
[52] = system: SNB-75 CNS
[53] = system: M14 melanoma
[54] = system: SR leukemia
[55] = system: OVCAR-8 ovarian
[56] = system: A549 NSCLC
[57] = system: NCI/ADR-RES ovarian
[58] = system: SF-539 CNS

SMILES: N#Cc1ccc(Oc2nc3ccccc3nc2-c2ccccc2)cc1
- TGI [1]: > 100 µM
- TGI [2]: > 100 µM
- TGI [3]: > 100 µM
- TGI [4]: > 100 µM
- TGI [5]: > 100 µM
- TGI [6]: > 100 µM
- TGI [7]: > 100 µM
- TGI [8]: > 100 µM
- TGI [9]: > 100 µM
- TGI [10]: > 100 µM
- TGI [11]: > 100 µM
- TGI [12]: > 100 µM
- TGI [13]: > 100 µM
- TGI [14]: > 100 µM
- TGI [15]: > 100 µM
- TGI [16]: > 100 µM
- TGI [17]: > 100 µM
- TGI [18]: > 100 µM
- TGI [19]: > 100 µM
- TGI [20]: > 100 µM
- TGI [21]: > 100 µM
- TGI [22]: > 100 µM
- TGI [23]: > 100 µM
- TGI [24]: > 100 µM
- TGI [25]: > 100 µM
- TGI [26]: > 100 µM
- TGI [27]: > 100 µM
- TGI [28]: > 100 µM
- TGI [29]: > 100 µM
- TGI [30]: > 100 µM
- TGI [31]: > 100 µM
- TGI [32]: > 100 µM
- TGI [33]: > 100 µM
- TGI [34]: > 100 µM
- TGI [35]: > 100 µM
- TGI [36]: > 100 µM
- TGI [37]: > 100 µM
- TGI [38]: > 100 µM
- TGI [39]: > 100 µM
- TGI [40]: > 100 µM
- TGI [41]: > 100 µM
- TGI [42]: > 100 µM
- TGI [43]: > 100 µM
- TGI [44]: > 100 µM
- TGI [45]: > 100 µM
- TGI [46]: > 100 µM
- TGI [47]: > 100 µM
- TGI [48]: > 100 µM
- TGI [49]: > 100 µM
- TGI [50]: > 100 µM
- TGI [51]: > 100 µM

SMILES: C/C=C/c1c(O)c(=O)c2c(OC)cc(OC)c3c4c(OC)cc(OC)c5c(=O)c(O)c(/C=C/C)c(c1c23)c54
- TGI [1]: 24.3 µM
- TGI [2]: > 100 µM
- TGI [3]: 29.5 µM
- TGI [4]: 87.8 µM
- TGI [5]: 35.5 µM
- TGI [52]: 28.7 µM
- TGI [6]: 34.9 µM
- TGI [7]: 19.1 µM
- TGI [9]: 68.9 µM
- TGI [10]: > 100 µM
- TGI [11]: > 100 µM
- TGI [12]: 31.6 µM
- TGI [13]: 28 µM
- TGI [14]: 41.8 µM
- TGI [15]: 17.2 µM
- TGI [16]: 47.1 µM
- TGI [17]: > 100 µM
- TGI [53]: > 100 µM
- TGI [19]: > 100 µM
- TGI [20]: > 100 µM
- TGI [21]: 45.5 µM
- TGI [22]: 36.6 µM
- TGI [23]: 29.4 µM
- TGI [24]: 40.5 µM
- TGI [54]: > 100 µM
- TGI [26]: > 100 µM
- TGI [27]: 16.9 µM
- TGI [28]: 19.8 µM
- TGI [29]: 24.9 µM
- TGI [30]: 26.1 µM
- TGI [55]: 31.4 µM
- TGI [31]: 23.8 µM
- TGI [32]: 6.33 µM
- TGI [33]: > 100 µM
- TGI [56]: > 100 µM
- TGI [34]: 15.5 µM
- TGI [57]: 34 µM
- TGI [35]: 14.3 µM
- TGI [36]: 54.5 µM
- TGI [37]: 24.6 µM
- TGI [38]: 57.4 µM
- TGI [39]: 30.6 µM
- TGI [40]: 19.6 µM
- TGI [41]: 21.1 µM
- TGI [42]: 15.8 µM
- TGI [58]: > 100 µM
- TGI [43]: 23.9 µM
- TGI [44]: 23.4 µM
- TGI [45]: 13.8 µM
- TGI [47]: > 100 µM
- TGI [48]: 38.2 µM
- TGI [50]: 19.2 µM
- TGI [51]: 44.3 µM
